Test results taken from BindingDB's records for doi:10.1074/jbc.M113.533885 (University of Texas Southwestern Medical Center, 2014).

What was measured:
[1] = target: T1, [Pyruvate dehydrogenase (acetyl-transferring)] kinase isozyme 2, mitochondrial (Homo sapiens, UniProt Q15119); assay: PDK Inhibition Assay; conditions: pH 7.5; 25 °C
[2] = target: [Pyruvate dehydrogenase (acetyl-transferring)] kinase isozyme 4, mitochondrial (Homo sapiens, UniProt Q16654); assay: PDK Inhibition Assay; conditions: pH 7.5; 25 °C
[3] = target: T2, Heat shock protein HSP 90-alpha [1-236] (Homo sapiens, UniProt P07900); assay: Isothermal Titration Calorimetry (ITC); conditions: pH 7.5; 15 °C
T2 construct: 1-236
Experimental: (§1) The PDK2 or Hsp90 N-terminal domain protein was dialyzed against 1 liter of thedialysis buffer containing 50 mM Tris-Cl, pH 7.5, 50 mM KCl, 1 mM MgCl2, and 0.5 mM β-mercaptoethanol.

[4] = target: T1, [Pyruvate dehydrogenase (acetyl-transferring)] kinase isozyme 2, mitochondrial; assay: Isothermal Titration Calorimetry (ITC); conditions: pH 7.5; 15 °C
Experimental: as §1

Chain of [Pyruvate dehydrogenase (acetyl-transferring)] kinase isozyme 4, mitochondrial (Q16654 whole entry): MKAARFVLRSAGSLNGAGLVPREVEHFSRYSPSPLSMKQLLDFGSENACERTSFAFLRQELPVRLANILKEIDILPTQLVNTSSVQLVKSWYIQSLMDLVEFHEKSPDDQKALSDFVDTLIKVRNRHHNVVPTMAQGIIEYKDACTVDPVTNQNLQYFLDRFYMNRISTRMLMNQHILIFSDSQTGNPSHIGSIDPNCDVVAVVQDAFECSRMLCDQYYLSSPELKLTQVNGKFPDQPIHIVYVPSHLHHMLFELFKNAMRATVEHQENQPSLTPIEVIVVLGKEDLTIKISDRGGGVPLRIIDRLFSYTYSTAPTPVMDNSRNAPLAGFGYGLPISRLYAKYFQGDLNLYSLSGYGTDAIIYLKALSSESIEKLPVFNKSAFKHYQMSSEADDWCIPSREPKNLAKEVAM

O=C(O)C(Cl)Cl [DCA]
IC50 [1]: 183 µM | IC50 [2]: 80 µM

Oc1ccc(-c2nnc(S)n2-c2cccc3ccccc23)c(O)c1 [Resorcinol analog, 1]
IC50 [1]: 3.82 µM | IC50 [2]: 0.28 µM | Kd [3]: 0.025 µM | Kd [4]: 6.76 µM
